According to PMC11219744, “Renal excretion of 1,2-dihydroxynaphthalene (DHN) in firefighting instructors after exposure to polycyclic aromatic hydrocarbons (PAHs) during live fire training” (Scientific Reports, 2024):

Key:
[1] = parameters: method as in PMID 32464238; details: by scheduled sampling time; cited from earlier work
[2] = Human biomonitoring: urinary excretion of PAH metabolites (GC–MS/MS, creatinine-normalised) in firefighting instructors before and after live fire training
Experimental: All study participants (n = 6) were male firefighting instructors from Germany. […] Before the start of the study, all subjects declared that they were non-smokers. Tattoo bearers were excluded before the start of the study as tattoo ink can be a potential source of polycyclic aromatic hydrocarbons. The authors declare that this research was conducted in accordance with the relevant regulations, including the Declaration of Helsinki. All subjects gave written informed consent after being informed about the study by the investigator.
Exposure to combustion products took place in several training sessions that simulated live fire conditions by burning a defined number of uncoated chipboards in an overseas container. The container was located in a hall with exhaust air purification. […] In addition, all subjects wore long-sleeved undergarments under their turnout gear. Only laundered clothing and cleaned equipment (e.g. helmets, masks) were used. The donning and doffing of clothing and protective equipment took place only in a smoke-free, well-ventilated area. Immediately after taking off the firefighters' gloves after training, the participants put on nitrile gloves for further undressing. After removing the helmet, flash hood and SCBA face shield, the participants put on particle filtering half masks (FFP3) to remove contaminated turnout jackets and trousers. After a break for rehydration and cool down still wearing their undergarments, the participants went to shower. […] The interval between two consecutive training sessions for each subject was at least six days. […] In this way, each subject was biomonitored at each of the five training sessions. All additional (unscheduled) urinations between the predefined times were also collected in separate containers and pooled afterwards with the next scheduled sample. […] A total of 270 samples were to be collected using this procedure for all participants and five training sessions of each individual. Subjects completed a questionnaire for each sampling period to account for possible pre-exposure or concurrent exposure to PAHs from sources other than the fire simulation unit, such as occupational exposure to combustion products, exposure to tobacco smoke (active/passive) and barbecue activities, and consumption of smoked or charbroiled foods.
In brief, the analytes were extracted by liquid–liquid extraction with n-hexane after enzymatic hydrolysis of the urine samples with ß-glucuronidase/arylsulfatase (isolated from helix pomatia) and derivatised by silylation with N-trimethylsilyl-N-methyl trifluoroacetamide afterwards. […] All standards were obtained from LGC-Standards, Wesel, Germany.
DHN in urine was determined referring to a method described in detail by Klotz et al.[29]. […] External calibration with internal standardisation by an isotopically labelled analogue of the target compound was done by analysis of pool urine samples spiked with the glucuronides of DHN and D6-1,2-dihydroxynaphthalene (internal standard) before enzymatic hydrolysis. Both standards are not commercially available and were obtained as a gift from the Institute of Occupational, Social and Environmental Medicine at the University of Erlangen-Nuremberg (Germany). A detailed description of the synthesis of the compounds is given by[26]. […] Up to now, there is no external quality assessment scheme available for DHN.
Urinary creatinine was analysed in the Institute of Clinical Chemistry and Laboratory Medicine of University Medical Centre of the Johannes Gutenberg University Mainz using a photometrical assay based on the method of[30].

[3] = upper margin of internal exposure typically found in smokers; cited from earlier work
[4] = Time to peak and initial elimination half-life of the urinary biomarkers (first-order model, linear mixed effects); assay type: in vivo, human
Source text: The initial half-life of each biomarker was estimated using statistical methods described previously[6],[32]. In short, we estimated the first-order elimination rate constant λ based on the model in Eq. (1):1 C=C0+B·e^λ·t+∈
Here, C is the creatinine-adjusted concentration in urine after the uptake phase, C0 is the baseline concentration before training, B is the difference from peak to baseline concentration, t is the time since peak concentration, and ϵ is the error term. […] Using package nlme[33] for the statistical environment R[34],[35], the model was fitted as a linear mixed effects model for the log concentration difference to baseline ln(C–C0) as the outcome. The model was fitted simultaneously for all data and included fixed effects for biomarker, time since peak, and their interaction term. It used random slopes for time since peak and random intercepts for […]. Errors were assumed to be autocorrelated according to an AR(1) process.

[5] = cited from earlier work
[6] = urinary excretion, time after onset of exposure

Oc1ccc2ccccc2c1 [2-NAP, 2-hydroxynaphthalene]
Time of peak excretion after the end of the training session [1]: 1 h | Proportion in the total excretion of the three naphthalene metabolites ([2]; after exposure (after sampling 3, rest of the sampling period), based on median concentrations): lower than 10% | Increase in concentration from before exposure up to the maximum of excretion, factor ([2]; male, human, in vivo): about 6 | Concentration in urine, IQR ([2]; male, human, in vivo, 0 h): 4.55–9.78 µg/g creatinine | Concentration in urine, range ([2]; male, human, in vivo, 0 h): 2.07–42.68 µg/g creatinine | Concentration in urine, IQR ([2]; male, human, in vivo, 1 h): 11.05–18.20 µg/g creatinine | Concentration in urine, median ([2]; male, human, in vivo, 1 h): 11.96 µg/g creatinine | Concentration in urine, range ([2]; male, human, in vivo, 1 h): 3.97–58.89 µg/g creatinine | Concentration in urine, median ([2]; male, human, in vivo, 2 h): 7.42 µg/g creatinine | Concentration in urine, IQR ([2]; male, human, in vivo, 3 h): 8.14–14.40 µg/g creatinine | Concentration in urine, median ([2]; male, human, in vivo, 3 h): 10.07 µg/g creatinine | Concentration in urine, range ([2]; male, human, in vivo, 3 h): 5.62–23.16 µg/g creatinine | Concentration in urine, IQR ([2]; male, human, in vivo, 6 h): 3.62–7.98 µg/g creatinine | Concentration in urine, median ([2]; male, human, in vivo, 6 h): 5.12 µg/g creatinine | Concentration in urine, range ([2]; male, human, in vivo, 6 h): 1.17–12.78 µg/g creatinine | Concentration in urine, IQR ([2]; male, human, in vivo, 9 h): 2.34–5.27 µg/g creatinine | Concentration in urine, median ([2]; male, human, in vivo, 9 h): 3.48 µg/g creatinine | Concentration in urine, range ([2]; male, human, in vivo, 9 h): 1.30–11.32 µg/g creatinine | Concentration in urine, IQR ([2]; male, human, in vivo, 11 h): 1.76–4.19 µg/g creatinine | Concentration in urine, median ([2]; male, human, in vivo, 11 h): 3.14 µg/g creatinine | Concentration in urine, range ([2]; male, human, in vivo, 11 h): 1.08–10.02 µg/g creatinine | Concentration in urine, IQR ([2]; male, human, in vivo, 18 h): 1.93–4.24 µg/g creatinine | Concentration in urine, median ([2]; male, human, in vivo, 18 h): 3.26 µg/g creatinine | Concentration in urine, range ([2]; male, human, in vivo, 18 h): 1.02–14.56 µg/g creatinine | Median increase in morning urine after exposure (sampling 9) vs. before (sampling 1) ([2]; male, human, in vivo, 18 h): 1.5 fold | Concentration in urine, IQR ([2]; male, human, in vivo, -0.4 h): 1.13–3.47 µg/g creatinine | Concentration in urine, median ([2]; male, human, in vivo, -0.4 h): 1.94 µg/g creatinine | Concentration in urine, range ([2]; male, human, in vivo, -0.4 h): 0.21–10.94 µg/g creatinine | Concentration in urine, IQR ([2]; male, human, in vivo, -4.2 h): 1.18–2.88 µg/g creatinine | Concentration in urine, median ([2]; male, human, in vivo, -4.2 h): 2.00 µg/g creatinine | Concentration in urine, range ([2]; male, human, in vivo, -4.2 h): 0.30–10.02 µg/g creatinine | Median increase from baseline (sample 2) to peak excretion ([2]; peak: sample 5 for 1-PYR, sample 4 otherwise): 6.6 fold | 95th percentile of urinary concentration in smokers [3]: 29.0 µg/g crea. | half-life ([4]; male, human, initial elimination half-life after peak excretion, urine, read-out: Estimated half-life, mean (converted)): 5.2 h | Time to peak, median [4, 6]: 3.3 h | Time to peak, range [4, 6]: 2.2 to 11.2 h

c1ccc2ccccc2c1 [NAP, naphthalene]
IARC carcinogenicity category [5]: group 2B (possibly carcinogenic to humans)
